Laboratory results as given in US8105798B2, “Cytoplasmic activity of retinoid X receptor and its regulation by ligands and dimerization” (The Burnham Institute, priority 2003, dated 2012).

What was measured:
RXRα = molecular target: T1, RXRα (Homo sapiens, UniProt P19793); assay: subcellular localization of RXRα by immunostaining / confocal microscopy; type: cell-based
T1 sequence (P19793 1-462): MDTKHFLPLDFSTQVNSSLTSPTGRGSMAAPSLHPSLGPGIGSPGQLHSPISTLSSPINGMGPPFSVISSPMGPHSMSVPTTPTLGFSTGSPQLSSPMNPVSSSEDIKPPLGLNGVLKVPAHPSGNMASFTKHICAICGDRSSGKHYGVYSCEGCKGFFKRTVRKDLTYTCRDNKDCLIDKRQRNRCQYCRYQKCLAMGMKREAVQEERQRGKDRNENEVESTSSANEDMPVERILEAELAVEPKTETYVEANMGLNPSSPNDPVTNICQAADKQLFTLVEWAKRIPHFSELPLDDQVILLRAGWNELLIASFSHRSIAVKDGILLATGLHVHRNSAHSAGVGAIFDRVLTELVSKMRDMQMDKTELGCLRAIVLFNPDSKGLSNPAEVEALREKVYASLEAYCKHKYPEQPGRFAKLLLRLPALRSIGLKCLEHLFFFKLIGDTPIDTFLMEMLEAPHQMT
Description: Expression vector for Flag-RXRα was transfected into the indicated cell line. Cells were then treated with 15d-PGJ2 (5.micro.M) for 3 hr, then immunostained with anti-Flag antibody to detect RXRα Flag-RXRα was visualized by confocal microscopy.
(§1) Expression vectors for Flag-RXRα and GFP-TR3 were transfected into PC12 cells alone or together. Cells were then treated with 15d-PGJ2 (5.micro.M) for 3 hr, then immunostained with anti-Flag antibody to detect RXRα Flag-RXRα and GFP-TR3 were visualized by confocal microscopy, and their images merged.
Cos7 cells were transfected with GFP-RXRα and Mito-REP, and treated with or without 10^-4 M indomethacin or diclofenac for 4 hours. The distribution of GFP-RXRα and Mito-REP was visualized by confocal microscopy.
For example, cells such as LNCaP prostate cancer cells are induced to apoptosis using agents such as the phorbol ester, TPA (12-0-tetradecanolphorbol 13-acetate, Cell Signaling Technology Cat. No.: 9905).
For example, heat shock protein 60 (Hsp60) is a mitochondrial specific protein. […] The treated cells are then incubated with a conjugated secondary antibody and visualized using confocal microscopy. In this example, Cy-3 or FITC conjugated secondary antibodies were used for visualizing the sub-cellular localization of RXRα or Hsp60, respectively.
A GFP-RXRα expression vector was transfected into COS-7 cells and GFP-RXRα was expressed.
A fusion protein created by combining GFP and amino acids 348-398 of RXRα, is transfected into HEK293T cells.
To determine the role of 15d-PGJ2 binding on the new RXR pathway, a confocal microscopy analysis was performed to determine subcellular localization of RXRα in the presence or absence of 15d-PGJ2.
(§2) Because RXR heterodimerizes with TR3, Inventor examined the effect of 15d-PGJ2 on TR3 subcellular localization in PC12 phaeochromocytoma cells.
To determine the mechanism of RXRα mediated apoptosis in the presence of sulindac sulfide, Inventors examined the effect of sulindac sulfide on subcellular localization of RXRα

RXR.alpha = molecular target: T2, RXR.alpha (Homo sapiens, UniProt P19793); assay: isothermal titration calorimetry (ITC); type: binding; conditions: data not shown
T2 sequence (P19793 1-462): T1 sequence (P19793 1-462)
Description: ITC is a thermodynamic technique for monitoring the binding reaction of two components. When a protein binds a ligand, heat is either generated or absorbed, and quantitation of this heat allows very accurate determination of the binding dissociation constant (kD), reaction stoichiometry (n), enthalpy and entropy. Heat effects a small as 0.2.micro.cal can be measured and titrations can be done on as little as 1 ml of a dilute solution. (See generally, Pierce, M. M., Raman, C. S., and Nall, B. T., Methods, (1999) 19: 213-21)

TR3 = assay: subcellular localization of TR3 and RXRα/TR3 heterodimer by confocal microscopy; type: cell-based; conditions: 75 μM
Description: as §1, with “FIG. 10 is a series of confocal microscope images of immunostained PC12 cells illustrating that binding of 15d-PGJ2 to RXRα induces translocation of RXRα homodimer/monomer or TR3/RXRα heterodimer from the nucleus to the cytoplasm. Expression” for “Expression”
In the absence of TPA, both TR3 and RXRα reside mainly in the nucleus. […] (FIG. 2).
as §2
Either TR3 alone, RXRα alone or TR3 and RXRα was transfected into HEK293T cells. Cells were then treated with sulindac sulfide (75.micro.M) for 6 hr. RXR.alpha and TR3 localization was determined by immunostaining, and cells were also stained by DAPI. […] Thus, the effect of sulindac sulfide on the cytoplasmic localization of TR3 depends on RXRα expression, probably due to their heterodimerization. Thus, sulindac sulfide induces nuclear export of RXRα and RXRα/TR3 heterodimer. (FIG. 14b).
The effect of sulindac sulfide on mitochondrial targeting of RXRα and TR3 was determined by treating H460 lung cancer cells with 75 micro.M sulindac sulfide for 6 hours and visualization of the cellular localization of these proteins by immunostaining. A two stage detection system was used having either anti-RXR or anti TR3 as a first stage (Santa Cruz Biotechnology and Abgent, respectively). In the absence of treatment, both RXRα and TR3 were found mainly in the nucleus.

RARβ expression = assay: RARβ protein expression by Western analysis in cancer cells; type: cell-based; conditions: sulindac sulfide 100 μM, 24 hr
Description: The indicated cancer cells were treated for 24 h with or without trans-RA (10^-6 M), or 15d-PGJ2 (5.micro.M) or their combination. RARβ protein expression was determined by Western analysis.
The effect of sulindac sulfide on RXR transactivation was investigated for its effect of RARβ induction by all-trans-retinoic acid (tRA), which activates the RA response element (βRARE) in the RARβ promoter through an RAR/RXR heterodimer. […] The βRARE could be also activated by an RXR/PPAR heterodimer. […] Cells were treated for 24 hr with or without with trans-RA (10^-6 M), or SR11237 (10^-6 M), ciglitazone (10.micro.M), sulindac sulfide (100.micro.M) or the indicated combinations. RARβ protein expression was determined by Western analysis.

[1] = system: H460, MGC80-3 and LNCaP cells; assay: cytochrome c release by immunostaining; type: cell-based; conditions: 75 μM, 6 hr
Description: To uncover the consequence of RXRα mitochondrial localization induced by sulindac sulfide, H460, MGC80-3 and LnCap cells were treated with or without sulindac sulfide and RXRα mitochondrial and cytochrome c release were determined by immunostaining, as described above. Cells were treated with or without sulindac sulfide (75.micro.M) for 6 hr. Cells were then stained with RXRα, Hsp6, and cytochrome c (cyt c).

Structure (SMILES): CSc1ccc(/C=C2/C(C)=C(CC(=O)O)c3cc(F)ccc32)cc1 [sulindac sulfide]
- endogenous RXRα localization (RXRα; Calu-6, H460, LNCaP, ZR-75-1, MGC80-3 and HEK293T cells, 75 μM, 6 hr): found mainly in the cytoplasm
- RXRα mitochondrial localization (RXRα; H460, MGC80-3 and LNCaP cells, 75 μM, 6 hr): results in RXRα mitochondrial localization
- transfected RXRα localization (RXRα; HEK293T cells, sulindac sulfide): found in the cytoplasm
- binding to RXR.alpha by ITC (RXR.alpha): confirmed the binding
- mitochondrial targeting of RXRα and TR3 (Hsp60) (TR3; H460 lung cancer cells, 6 hours): extensive co-localization of RXRα and TR3 with Hsp60
- TR3 and RXRα localization, co-transfected (TR3; HEK293T cells, 6 hr): both TR3 and RXRα are found in the cytoplasm
- TR3 localization, TR3 transfected alone (TR3; HEK293T cells, 6 hr): does not affect the nuclear localization of TR3
- inducing effect of tRA on RARβ (RARβ expression; ZR-75-1 and Calu-6 cells, trans-RA 10^-6 M): effectively suppressed
- activation of RXR/PPAR heterodimer by SR11237 and ciglitazone (RARβ expression) (RARβ expression; SR11237 10^-6 M, ciglitazone 10 μM): effectively inhibited
- cytochrome c release [1]: massively released
